“Also recorded” adds a separate entry of the source.

Consider five molecules from patent US11859208B2, “Methods of treating cancer using cell based therapies” (Emory University, priority 2016, dated 2024).

Series [1] has as its system luciferase B6 splenic T cells. As to the kind of experiment: One-way mixed lymphocyte reaction (MLR), T-cell proliferation stimulated by alloantigen. The class given is cell-based, mouse. Conditions: for T-cell proliferation in MLR: luciferase B6 splenic T cells, 3 days with irradiated FVB splenocytes, daily addition, 0-10 mmol/L. How it is done:
Proliferation of luciferase B6 splenic T cells cultured for 3 days in MLR with irradiated FVB splenocytes, with daily addition of VIP and/or VIPhyb to achieve the concentrations shown (0-10 mmol/L).
To explore the role of VIP signaling in allo-immune responses, one-way mixed lymphocyte reactions (MLR) were performed containing VIP and/or the antagonistic VIPhyb peptide.

The conditions of series [2]: cited from earlier work.
A further series concerns E.G7-OVA cells. In words: OVA-expressing lymphoma model: adoptive transfer of T cells expanded with the compounds. In kind it is in vivo, mouse. Particulars: OT-I, OT-II and B6 T cells expanded 3 days with compound, injected intravenously on day 7 of tumor growth. How it is done: Mice were injected subcutaneously with 5×10^5 E.G7-OVA cells which were allowed to grow for 7 days until a palpable tumor formed. During this period, OT-I, OT-II, and B6 T cells were expanded with CD3/CD28 beads in the presence of IL-2 and the indicated compounds for 3 days. On day 7 of tumor growth, mice were injected intravenously with a combination of expanded OT-I, OT-II, and B6 T cells (2×10^6 OT-I, 1×10^6 OT-II, and 2×10^6 B6 cells) or 2×10^6 B6 T cells as a control. Mice were then monitored for tumor growth which was calculated as (L×W2)/2.

A further series concerns DLBCL patient T cells. As to the kind of experiment: DLBCL patient T cell expansion for 14 days with CD3/CD28 beads and IL-2. The class given is cell-based, human.
Series [3] deals with senescent T cells from a patient with lymphoma. In words: 10 day in vitro expansion of senescent lymphoma patient T cells with anti-CD3/CD28 beads, flow cytometric analysis. The class given is cell-based, human. Conditions: for fraction of senescent T cells that lacked both CD27 and CD28: control 55.2%; for numbers of effector memory T cells (Tem): 10-day cultures; for in vitro expansion of senescent T cells: anti CD3/CD28 beads, single agents or in combination. The procedure: Monocytes were depleted from the T cell sample, as monocytes are known to inhibit T cell expansion in cultures containing anti-CD3/CD28 beads. The effect of a range of idelalisib concentrations were compared alone and in combination with 3 uM VIP peptide antagonist (VIPhyb) or 1 ug/ml mast cell chymase, an enzyme that degrades endogenous VIP on T cell activation, differentiation and proliferation. Numbers of viable T cells were measured during a 10 day in vitro cultures as well as the T cell differentiation and activation profiles, focusing on the relative numbers of T cells with a senescent phenotype in which co-stimulatory receptors CD27 and CD28 are both absent (CD27− CD28−), to an activated phenotype, in which either CD27, CD28, or both co-stimulatory receptors are present (CD27+CD28+).
Aliquots of frozen patient apheresis products or PBMC from ficolled whole blood were rapidly thawed and rested overnight in complete RPMI 1640 supplemented with 10% fetal bovine serum, 100 U/mL penicillin, 100 μg/mL streptomycin, and 50 μM 2-mercaptoethanol (complete media). The following day, red blood cells were removed from apheresis products by ficoll gradient. The leukocytes were then enriched for T cells using an EasySep human T cell enrichment kit according to manufacturer's instructions. Cells were plated in 200 μL of complete media in each well of a 96 well flat-bottom plate. Compounds were added at the indicated concentrations, and the DMSO concentration was normalized to 0.1% for all wells. Anti-CD3/CD28 beads were added at a 1:1 bead:cell ratio. On day 7 post-stimulation, cells from each treatment were transferred to new media. Fresh compounds and beads were then added, and the cells were cultured for an additional 3 days. On day 10 post-initial stimulation, the beads were removed, and the cells were stained for flow cytometric analysis.
Cells were washed twice in PBS. The cells were also stained using a fixable viability dye. Surface markers were then stained by adding fluorochrome-conjugated antibodies to CD3, CD4, CD8, CD27, CD28, CD45RA, CD45RO, PD-1, and CCR7. To assess proliferation, half the cells were evaluated for expression of Ki67. Ki67 staining was performed using a FoxP3 intracellular staining kit. Just prior to running samples, Accucheck counting beads were added to each tube. Samples were acquired on a BD FACS Aria, and analysis was performed using FlowJo software. Viable cells were used in the analysis. The absolute numbers of cells was calculated for each population according to instructions provided by the manufacturer of the Accucheck counting beads.
On the technique in general: In flow cytometry, cells or beads pass a laser one at a time.

Series [4] relates to T-cells from the patient with relapsed lymphoma. In words: Sorted T cells of a relapsed lymphoma patient cultured with anti-CD3/anti-CD28 beads (Ki67, PD-1 flow cytometry). Particulars: for T-cell proliferation in subsets lacking CD27 or CD28: sorted subsets, anti-CD3/CD28 beads. The class given is cell-based, human. From the text: Using high-speed cell sorting subsets of T-cells were isolated defined by their levels of CD27 and CD28 expression from the patient with relapsed lymphoma and a healthy control. CD3 positive T-cells with each of the four phenotypes defined by CD27 and CD28 expression were sorted and cultured in vitro in the presence of anti-CD3/anti-CD28 beads. While total T-cells from healthy donors had 100% expression of the Ki67 proliferation marker following four days of culture, the corresponding total T-cell population from the patient with anergic T-cells following treatment for lymphoma had only 90% of T-cells expressing the Ki67 marker.
Following the daily addition of 3 uM VIPhyb to these cultures, the proportion of Ki67 positive T-cells from the anergic lymphoma patient was increased to 100%. […] In contrast, the T-cell subsets lacking expression of either CD27 or CD28 or both markers had impaired proliferated response when incubated with the anti-CD3/CD28 beads.

Series [5] deals with Bcl-2 in lymphoma patient T cells. As to the kind of experiment: Bcl-2 expression in patient T cell expansion cultures (SDS-PAGE, membrane probing). In kind it is cell-based, human. Particulars: lysates on days 7 and 14, actin loading control. The procedure:
Protein lysates from patient T cell expansion cultures were prepared on days 7 and 14. Samples were run on an SDS-PAGE gel prior to transfer to a nitrocellulose membrane. The membrane was then probed for the pro-survival Bcl-2 protein, stripped, and then re-probed for actin as a loading control.

For series [6] the following is noted: cited from earlier work. The source holds these as a separate data set.
Where [7] appears, read: inclusion during T cell activation.

Turning to “VIP: (SEQ ID NO: 12) HSDAVFTDNYTRLRKQMAVKKYLNSILN, endogenous polypeptide”, the “T-cell proliferation in MLR” value in series [1] is reported as “decreased Luciferase T-cell proliferation in a dose-dependent manner”. In series [2], the half-life in vivo entry is listed as “less than two”.

With “VIPhyb: VIP receptor antagonist, hybrid peptide of neurotensin and VIP, (SEQ ID NO: 1) KPRRPYTDNYTRLRKQMAVKKYLNSILN”, the “therapeutic efficacy of expanded mouse T cells (tumor growth)” value with E.G7-OVA cells was “enhances their therapeutic efficacy”. Further, in the series on DLBCL patient T cells, the “frequency of CD27+CD28+ cells” value is listed as “increases” and the “frequency of CD27-CD28- cells” value is reported as “decreasing”. In addition, in series [1] (MLR with VIP and VIPhyb), the “effect on the suppression of T-cell proliferation by VIP” value is listed as “mitigated the inhibitory effect of the native VIP peptide on T-cell proliferation; also recorded: reversed the suppressive effect of VIP in MLR”. For the same molecule, the “T-cell proliferation in MLR” value in series [1] is reported as “augmented in vitro T-cell proliferation; also recorded: augmented T cell proliferation in vitro; also recorded: increased T-cell proliferation”. Further, the “fraction of senescent T cells that lacked both CD27 and CD28” value (from here on “fraction”) in series [3] (3 uM VIPhyb) is listed as 35.7%. Moreover, in series [3], the “numbers of effector memory T cells (Tem)” value is given as “increased” and the “in vitro expansion of senescent T cells” value is recorded as “significantly expanded”. The PD-1 expression result in series [4] (3 uM VIPhyb, compared with control cultures without VIP antagonist) is given as “decreased levels of PD-1 expression”. Also, the “proportion of Ki67 positive T-cells” value in series [4] (daily addition of 3 uM VIPhyb, total T-cells of anergic lymphoma patient, anti-CD3/anti-CD28 beads, 90% without VIPhyb) amounted to 100%. Besides, the “T-cell proliferation in subsets lacking CD27 or CD28” value in series [4] was “augmented T-cell proliferation”. Moreover, the “expression of Bcl-2” value in series [5] is “increased”.

On to `CC[C@H](Nc1ncnc2[nH]cnc12)c1nc2cccc(F)c2c(=O)n1-c1ccccc1` [idelalisib, (S)-2-(1-(9H-purin-6-ylamino)propyl)-5-fluoro-3-phenylquinazolin-4(3H)-one], for which the “therapeutic efficacy of expanded mouse T cells (tumor growth)” value in the series with E.G7-OVA cells is given as “enhances their therapeutic efficacy”. In the series on DLBCL patient T cells, the “frequency of CD27+CD28+ cells” value is given as “increases” and the “frequency of CD27-CD28- cells” value is on record as “decreasing”. Moreover, in the series on DLBCL patient T cells (setting [7]), the “number of viable T cells obtained” value was “increases”; the “proportion of naive and central memory cells” value was “increases”. For the same molecule, in series [3] (10 nM idelalisib), the “fraction” value is given as 16.1%. Also, in series [3], the “numbers of effector memory T cells (Tem)” value is given as “increased” and the “in vitro expansion of senescent T cells” value is on record as “significantly expanded”. Moreover, the “proportion of T cells co-expressing CD27 and CD28” value in series [3] (idelalisib 1 uM or 100 nM, compared to control cultures with no added drug) is given as “significantly increased”. Also, in series [6] (human, in vivo), the “adverse signs and symptoms in treated patients” value is “auto immune-like signs and symptoms including colitis and rash”; the “anti-cancer responses after drug treatment has stopped” value is “continued anti-cancer responses”. Also, the “T-cell activation in patients with CLL” value in series [6] (idelalisib treatment) is “increased T-cell activation”. The “expression of Bcl-2” value in series [5] is “increased”.

B1: mast cell chymase: an enzyme that degrades endogenous VIP; human CMA1 (protein, UniProt P23946 22-247, looked up)
Chymase: IIGGTECKPHSRPYMAYLEIVTSNGPSKFCGGFLIRRNFVLTAAHCAGRSITVTLGAHNITEEEDTWQKLEVIKQFRHPKYNTSTLHHDIMLLKLKEKASLTLAVGTLPFPSQFNFVPPGRMCRVAGWGRTGVLKPGSDTLQEVKLRLMDPQACSHFRDFDHNLQLCVGNPRKTKSAFKGDSGGPLLCAGVAQGIVSYGRSDAKPPAVFTRISHYRPWINQILQAN
Regarding B1, the “fraction” value in series [3] (1 μg per ml mast cell chymase) is 37.4%. Besides, in series [3], the “in vitro expansion of senescent T cells” value was “significantly expanded”.

B2: IL 12: IL-12 added to T cell cultures with anti-CD3/CD28 beads (protein, UniProt P29459 23-219; P29460 23-328, looked up)
Interleukin-12 subunit alpha: RNLPVATPDPGMFPCLHHSQNLLRAVSNMLQKARQTLEFYPCTSEEIDHEDITKDKTSTVEACLPLELTKNESCLNSRETSFITNGSCLASRKTSFMMALCLSSIYEDLKMYQVEFKTMNAKLLMDPKRQIFLDQNMLAVIDELMQALNFNSETVPQKSSLEEPDFYKTKIKLCILLHAFRIRAVTIDRVMSYLNAS
Interleukin-12 subunit beta: IWELKKDVYVVELDWYPDAPGEMVVLTCDTPEEDGITWTLDQSSEVLGSGKTLTIQVKEFGDAGQYTCHKGGEVLSHSLLLLHKKEDGIWSTDILKDQKEPKNKTFLRCEAKNYSGRFTCWWLTTISTDLTFSVKSSRGSSDPQGVTCGAATLSAERVRGDNKEYEYSVECQEDSACPAAEESLPIEVMVDAVHKLKYENYTSSFFIRDIIKPDPPKNLQLKPLKNSRQVEVSWEYPDTWSTPHSYFSLTFCVQVQGKSKREKKDRVFTDKTSATVICRKNASISVRAQDRYYSSSWSEWASVPCS
As for B2, the “T-cell proliferation in subsets lacking CD27 or CD28” value in series [4] was “significant impact in increasing the proliferation fraction of T-cells that were CD28 negative but not those that were CD27 negative”.
